Source: patent publication US8183252B2, “Heterocyclic aspartyl protease inhibitors” (Schering Corporation, priority 2007, dated 2012)

Target: T1, human BACE1 (sproBACE1) (Homo sapiens, UniProt P56817)
T1 construct: sBACE1, corresponding to amino acids 1-454; made in house; host or cells: Sf9 insect cells (baculovirus), secreted into the medium
Assay: BACE-1 Peptide Hydrolysis Assay (HTRF)
Assay type: biochemical
Settings: not given
Text: A HindIII/PmeI fragment from pCDNA4-sBACE1myc/His was blunt ended using Klenow and subcloned into the Stu I site of PFASTBACI(A) (Invitrogen). A sBACE1mycHis recombinant bacmid was generated by transposition in DH10Bac cells (GIBCO/BRL). Subsequently, the sBACE1mycHis bacmid construct was transfected into sf9 cells using CellFectin (Invitrogen, San Diego, Calif.) in order to generate recombinant baculovirus. […] Five milliliters of high titer plaque purified sBACEmyc/His virus was used to infect 1 L of logarithmically growing sf9 cells for 72 hours. Intact cells were pelleted by centrifugation at 3000×g for 15 minutes. The supernatant, containing secreted sBACE1, was collected and diluted 50% v/v with 100 mM HEPES, pH 8.0. The diluted medium was loaded onto a Q-sepharose column. The Q-sepharose column was washed with Buffer A (20 mM HEPES, pH 8.0, 50 mM NaCl).
Proteins, were eluted from the Q-sepharose column with Buffer B (20 mM HEPES, pH 8.0, 500 mM NaCl). The protein peaks from the Q-sepharose column were pooled and loaded onto a Ni-NTA agarose column. The Ni-NTA column was then washed with Buffer C (20 mM HEPES, pH 8.0, 500 mM NaCl). Bound proteins were then eluted with Buffer D (Buffer C+250 mM imidazole).
Reactions were initiated by addition of substrate in a 5 μl aliquot resulting in a total volume of 25 μl. After 3 hr at 30° C. reactions were terminated by addition of an equal volume of 2× stop buffer containing 50 mM Tris-HCl pH 8.0, 0.5 M KF, 0.001% Brij-35, 20 μg/ml SA-XL665 (cross-linked allophycocyanin protein coupled to streptavidin; CIS-Bio International, France) (0.5 μg/well). Plates were shaken briefly and spun at 1200×g for 10 seconds to pellet all liquid to the bottom of the plate before the incubation.
Y=Bottom+(Top-Bottom)/(1+10^((LogEC50−X)*Hill Slope)); X is the logarithm of concentration of I, Y is the percent change in ratio and Y starts at bottom and goes to top with a sigmoid shape.

T1 sequence (P56817 22-454): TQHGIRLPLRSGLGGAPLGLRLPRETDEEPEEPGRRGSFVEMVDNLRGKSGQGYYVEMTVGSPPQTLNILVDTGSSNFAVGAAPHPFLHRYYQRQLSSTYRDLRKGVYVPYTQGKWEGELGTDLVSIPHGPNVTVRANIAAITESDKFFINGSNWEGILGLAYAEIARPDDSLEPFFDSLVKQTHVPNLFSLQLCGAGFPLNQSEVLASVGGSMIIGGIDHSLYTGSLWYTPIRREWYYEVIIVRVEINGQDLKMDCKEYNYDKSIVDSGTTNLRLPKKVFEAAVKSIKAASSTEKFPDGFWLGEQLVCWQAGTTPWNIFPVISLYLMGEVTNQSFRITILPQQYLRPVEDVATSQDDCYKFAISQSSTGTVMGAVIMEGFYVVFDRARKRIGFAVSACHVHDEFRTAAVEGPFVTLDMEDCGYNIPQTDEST

| SMILES | Ki [µM] |
| --- | --- |
| CC(=O)N1CCC(CN2C(=N)NC(C)(c3cccc(-c4cnn(C)c4)c3)C2=O)CC1 (stereo not shown) | < 5 |
| CC(=O)N1CCC(CN2C(=N)NC(C)(c3cccc(-c4cn[nH]c4)c3)C2=O)CC1 (stereo not shown) | < 5 |
| CC(=O)N1CCC(CN2C(=N)NC(C)(c3cccc(-c4cccc5[nH]ccc45)c3)C2=O)CC1 (stereo not shown) | < 5 |
| COc1ccc(CNc2ccccc2)c(-c2cccc(C3(C)NC(=N)N(CC4CCN(C(C)=O)CC4)C3=O)c2)c1 (stereo not shown) | < 5 |
| COc1ccc(C=O)c(-c2cccc(C3(C)NC(=N)N(CC4CCN(C(C)=O)CC4)C3=O)c2)c1 (stereo not shown) | < 5 |
| CC(=O)N1CCC(CN2C(=N)NC(C)(c3cccc(-c4ccoc4)c3)C2=O)CC1 (stereo not shown) | < 5 |
| CC(=O)N1CCC(CN2C(=N)NC(C)(c3cccc(-c4cccc(O)c4)c3)C2=O)CC1 (stereo not shown) | < 5 |

Same assay, conditions: read-out: BACE-1 Ki

| SMILES | Ki [µM] |
| --- | --- |
| CN1OCC(C)(c2cccc(-c3cccc(C#N)c3)c2)NC1=N (stereo not shown) | < 5 |
| CC(=O)N1CCC(CN2C(=N)N[C@@](c3cccc(-c4cncc(Br)c4)c3)(C3CC3)C2=O)CC1 | < 5 |
| CC1(c2cccc(-c3cccc(Cl)c3)c2)NC(=N)N(CC2CCN(C(=O)c3ccccc3)C2)C1=O (stereo not shown) | < 5 |
| COCC1CCCN1C(=O)c1cccc(CN2C(=N)NC(C)(c3ccccc3)C2=O)c1 (stereo not shown) | < 5 |
| N=C1NC(c2ccccc2)(c2ccccc2)C(=O)N1CC1CCN(C(=O)Nc2cccc(Cl)c2)CC1 | < 5 |
| C[C@H]1C(=O)N(C)C(=N)N[C@]1(C)c1cc(-c2ccc(F)c(C#N)c2)cs1 | < 5 |
| CN1OCC(C)(c2cc(-c3ccc(F)c(C#N)c3)cs2)NC1=N (stereo not shown) | < 5 |
| CN1C(=N)N[C@](CCc2ccccc2)(C[C@H]2CCC[C@@H](Nc3cccnc3)C2)C1=O | < 5 |
| CN1C(=N)N[C@](C)(C[C@H]2CCC[C@@H](Nc3cnc4ccccc4n3)C2)C1=O | < 5 |
| CN1C(=N)N[C@](C)(C[C@H]2CCC[C@@H](Nc3cnccn3)C2)C1=O | < 5 |
| COc1cncc(-c2cccc(C3(C)NC(=N)N(CC4CC(=O)N(Cc5ccccc5)C4)C3=O)c2)c1 (stereo not shown) | < 5 |
| COc1cncc(-c2cccc(C3(C)NC(=N)N(CC4CC(=O)N(c5ccccc5)C4)C3=O)c2)c1 (stereo not shown) | < 5 |
| N=C1NC(c2ccccc2)(c2ccccc2)C(=O)N1Cc1cccc(NC(=O)Cc2cccs2)c1 | < 5 |
| CN1C(=N)N[C@](CCC2CCCCC2)(C[C@H]2CCC[C@@H](NC(=O)c3cc(Cl)nc(Cl)c3)C2)C1=O | < 5 |
| CN1C(=N)N[C@](C)(c2ccc(-c3cc(Cl)cc(C#N)c3)s2)[C@@H](C2CC2)C1=O | < 5 |
| CN1C(=N)N[C@](C)(c2nc(-c3cccc(C#N)c3)cs2)CC1=O | < 5 |
| CN1C(=N)N[C@](C)(c2csc3c(-c4cccc(C#N)c4)cccc23)CC1=O | < 5 |
| CCN1C(=N)N[C@](C)(c2cc(-c3cccc(C#N)c3)cs2)CC1=O | < 5 |
| CC(C)n1cc([C@H]2C(=O)N(C)C(=N)N[C@]2(C)c2cc(-c3cccc(C#N)c3)cs2)cn1 | < 5 |
| CN1C(=N)N[C@](C)(c2cc(-c3cc(C#N)ccc3O)cs2)CC1=O | < 5 |
| COc1cc(C#N)cc(-c2csc([C@]3(C)CC(=O)N(C)C(=N)N3)c2)c1 | < 5 |
| CN1C(=N)N[C@](C)(c2cc(-c3cccc(C#N)c3)nn2C)CC1=O | < 5 |
| CN1C(=N)NC(C)(c2cc(-c3cccc(C#N)c3)cs2)C(CC=Cc2ccccc2)C1=O (stereo not shown) | < 5 |
| COc1ccc2c(c1)CC[C@@]21C(=O)N(C)C(=N)N[C@]1(C)c1cc(-c2cccc(C#N)c2)cs1 | < 5 |
| CC1(c2cccc(-c3cccc(Cl)c3)c2)NC(=N)N(CC2CCN(C(=O)Nc3ccccc3)C2)C1=O (stereo not shown) | < 5 |

| SMILES | Ki [µM] |
| --- | --- |
| CC1(c2cccc(-c3cccc(Cl)c3)c2)NC(=N)N(CC2CCN(C(=O)CC3CCCCC3)C2)C1=O (stereo not shown) | < 5 |
| CC1(c2cccc(-c3cccc(Cl)c3)c2)NC(=N)N(CC2CCN(C(=O)C3CCCCC3)C2)C1=O (stereo not shown) | < 5 |
| CN1C(=N)N[C@](C)(c2cc(-c3cc(C#N)ccc3Cl)c3sccc3c2)CC1=O | < 5 |
| Cc1cc(-c2cccc(C3(C4CC4)NC(=N)N(C)C3=O)c2)ccn1 (stereo not shown) | < 5 |
| CN1C(=N)NC(c2cc(-c3cccc(CO)c3)cs2)(C2CC2)C1=O (stereo not shown) | < 5 |
| CN1C(=N)NC(C)(c2ccnc(-c3cc(Cl)cc(Cl)c3)c2)C1=O (stereo not shown) | < 5 |
| CN1OCC(C)(c2cccc(-c3cccc(Cl)c3)c2)NC1=N (stereo not shown) | < 5 |
| CN1OCC(C)(c2cccc(-c3cc(Cl)cc(Cl)c3)c2)NC1=N (stereo not shown) | < 5 |
| Cc1c(-c2ccc(F)c(C#N)c2)sc([C@@]2(C)CC(=O)N(C)C(=N)N2)c1Cl | < 5 |
| CN1C(=N)NC(c2ccccc2)(c2cc(-c3ccc4c(c3)OCO4)cs2)C1=O (stereo not shown) | < 5 |
| CN1C(=N)NC(C)(c2ccc(C#N)s2)C(c2ccc(Cl)c(Cl)c2)C1=O (stereo not shown) | < 5 |
| CN1C(=N)N[C@](C)(c2ccc3scc(-c4ccc(C#N)s4)c3c2)CC1=O | < 5 |
| COc1cc(-c2cccc([C@@]3(C4CC4)NC(=N)N(C)C3=O)c2)ccc1O | < 5 |
| CN1C(=N)N[C@](C)(c2cc(-c3cccnc3F)cs2)[C@@H](C2CC2)C1=O | < 5 |
| CC[C@H]1C(=O)N(C)C(=N)N[C@]1(C)c1cccc(-c2cccc(OC)c2)c1 | < 5 |
| CN1C(=N)N[C@](CCC2CCCCC2)(C[C@H]2CCC[C@H](N3CC[C@H](O)C3)C2)C1=O | < 5 |
| CN1C(=N)N[C@@](c2cccc(-c3cc(Cl)cnc3F)c2)(C2CC2)C1=O | < 5 |
| CN1C(=N)N[C@](C)(c2c(F)cc(F)cc2F)[C@@H](c2ccc(C(C)(F)F)cc2)C1=O | < 5 |
| CCC1(c2cc(-c3cccnc3)cs2)CC(=O)N(C)C(=N)N1 (stereo not shown) | < 5 |
| CCc1cccc(-n2cc([C@]3(C)CC(=O)N(C)C(=N)N3)cn2)c1 | < 5 |
| CN1C(=N)N[C@](C)(c2ccc3c(cnn3CC3CCCC3)c2)CC1=O | < 5 |
| CN1C(=N)N[C@](C)(c2cccc(-c3cccnc3F)c2)CC1=O | < 5 |
| CN1C(=N)N[C@](C)(c2cc(-c3cncc(Cl)n3)cs2)CC1=O | < 5 |
| CN1C(=N)N[C@](C)(c2ncc(-c3cccc(Br)c3)s2)CC1=O | < 5 |
| CCc1cccc(-c2cc([C@]3(C)CC(=O)N(C)C(=N)N3)nn2C)c1 | < 5 |

| SMILES | Ki [µM] |
| --- | --- |
| CN1C(=N)N[C@](C)(c2cc3cccc(Br)c3s2)CC1=O | < 5 |
| C[C@H]1C(=O)N(C)C(=N)N[C@]1(C)c1cc2ccccc2s1 | < 5 |
| CC(C)(C)CC(=O)Nc1cccc(CN2C(=N)NC(c3ccccc3)(c3ccccc3)C2=O)c1 | < 5 |
| N=C1NC(c2ccccc2)(c2ccccc2)C(=O)N1Cc1cccc(NC(=O)C2CCCCC2)c1 | < 5 |
| N=C1NC(c2ccccc2)(c2ccccc2)C(=O)N1Cc1cccc(NS(=O)(=O)C2CC2)c1 | < 5 |
| CCCS(=O)(=O)Nc1cccc(CN2C(=N)NC(c3ccccc3)(c3ccccc3)C2=O)c1 | < 5 |
| CS(=O)(=O)Nc1cccc(CN2C(=N)NC(c3ccccc3)(c3ccccc3)C2=O)c1 | < 5 |
| CCS(=O)(=O)Nc1cccc(CN2C(=N)NC(c3ccccc3)(c3ccccc3)C2=O)c1 | < 5 |
| CN(c1cccc(CN2C(=N)NC(c3ccccc3)(c3ccccc3)C2=O)c1)S(C)(=O)=O | < 5 |
| CN1C(=N)N[C@](CCc2ccccc2)(C[C@H]2CCC[C@@H](NC(=O)c3cccnc3)C2)C1=O | < 5 |
| CN1C(=N)N[C@](CCC2CCCCC2)(C[C@H]2CCC[C@@H](NC(=O)c3ccccn3)C2)C1=O | < 5 |
| CN1C(=N)N[C@](CCC2CCCCC2)(C[C@H]2CCC[C@@H](NC(=O)C3CCCC3)C2)C1=O | < 5 |
| CN1C(=N)N[C@](CCC2CCCCC2)(C[C@H]2CCC[C@@H](NC(=O)Cc3ccc4ccccc4c3)C2)C1=O | < 5 |
| CN1C(=N)NC(C)(c2cccc(-c3cc(Cl)ccc3CNC(=O)c3cccnc3)c2)C1=O (stereo not shown) | < 5 |
| CN1C(=N)N[C@](CCC2CCCCC2)(C[C@H]2CCC[C@@H](NC(=O)NC(=O)c3ccccc3)C2)C1=O | < 5 |
| N=C1NC(c2ccccc2)(c2ccccc2)C(=O)N1C[C@H]1CCCN(C(=O)C2CC2)C1 | < 5 |
| CCCC(=O)N1CCC[C@@H](CN2C(=N)NC(c3ccccc3)(c3ccccc3)C2=O)C1 | < 5 |
| CCCS(=O)(=O)N1CCC[C@H](CN2C(=N)NC(c3ccccc3)(c3ccccc3)C2=O)C1 | < 5 |
| N=C1NC(c2ccccc2)(c2ccccc2)C(=O)N1CC1CCN(C(=O)Cc2cccnc2)CC1 | < 5 |
| CN1C(=N)N[C@](C)(c2ccc3c(ccn3C)c2)CC1=O | < 5 |
| CN1C(=N)N[C@](C)(c2ccc3c(c2)c(-c2cccs2)cn3C)CC1=O | < 5 |
| CC(C)Oc1cccc(-c2csc([C@]3(C)CC(=O)N(C)C(=N)N3)c2)c1 | < 5 |
| CSc1cccc(-c2csc([C@]3(C)CC(=O)N(C)C(=N)N3)c2)c1 | < 5 |
| CN1C(=N)N[C@](C)(c2csc3c(-c4ccsc4)cccc23)CC1=O | < 5 |
| COc1cccc(-c2sc([C@]3(C)CC(=O)N(C)C(=N)N3)cc2C)c1 | < 5 |
